Laboratory results from ChEMBL document CHEMBL5052818, “Aminopyrimidine derivatives as ctps1 inhibitors” (2019).

Assay: Inhibition of C-terminal FLAG-His-tagged full length human CTPS1 measured after 60 mins by ADP-Glo assay

Compound | IC50
CC(C)Oc1cncc(-c2ccc(NC(=O)C(C)(C)c3ccnc(NS(C)(=O)=O)n3)c(F)c2)n1 | > 100 nM
CCC(C(=O)Nc1ccc(-c2cncc(OC)n2)cc1F)c1ccnc(NS(=O)(=O)C2CC2)n1 (centres undefined) | ≤ 100 nM
CCOc1cncc(-c2ccc(NC(=O)C(C)(C)c3ccnc(NS(=O)(=O)CC)n3)cc2)n1 | > 100 nM
CCOc1cncc(-c2ccc(NC(=O)C(C)(C)c3nc(NS(=O)(=O)C4CC4)ncc3F)cc2)n1 | > 100 nM
CCC(C(=O)Nc1ccc(-c2cncc(C(F)(F)F)n2)cc1F)c1ccnc(NS(=O)(=O)C2CC2)n1 (centres undefined) | ≤ 100 nM
CC(C)Oc1cncc(-c2ccc(NC(=O)C(C)(C)c3ccnc(NS(=O)(=O)C4CC4)n3)cc2)n1 | ≤ 100 nM
CCOc1cncc(-c2ccc(NC(=O)C(C)(C)c3ccnc(NS(=O)(=O)C4CC4)n3)cc2)n1 | ≤ 100 nM
CC(C)(C(=O)Nc1ccc(-c2cncc(C(F)(F)F)n2)cc1)c1ccnc(NS(=O)(=O)C2CC2)n1 | ≤ 100 nM
CCOc1cncc(-c2ccc(NC(=O)C(CC)c3ccnc(NS(=O)(=O)C4CC4)n3)nc2)n1 (centres undefined) | ≤ 100 nM
CC(C)(C(=O)Nc1ccc(-c2cnccn2)cc1)c1ccnc(NS(=O)(=O)C2CC2)n1 | > 1000 nM
CCOc1cncc(-c2ccc(NC(=O)C(CC)c3ccnc(NS(=O)(=O)C4CC4)n3)c(F)c2)n1 (centres undefined) | ≤ 100 nM
CCOc1cncc(-c2ccc(NC(=O)C(C)(C)c3ccnc(NS(=O)(=O)C4(C)CC4)n3)cc2)n1 | > 100 nM
CCC(C(=O)Nc1ccc(-c2cncc(Cl)c2)cc1F)c1ccnc(NS(=O)(=O)C2CC2)n1 (centres undefined) | > 100 nM
CCS(=O)(=O)Nc1nccc(C(C)(C)C(=O)Nc2ccc(-c3cncc(C(F)(F)F)n3)cc2)n1 | > 100 nM

Now from value to compound:

IC50 | Compound
> 10000 nM | CCOc1cccc(-c2ccc(NC(=O)C(C)(C)c3ccnc(NS(=O)(=O)C4CC4)n3)cc2)c1
> 100 nM | CCOc1cncc(-c2ccc(NC(=O)C(C)(C)c3ccnc(NS(=O)(=O)CC)n3)c(F)c2)n1
> 100 nM | CCOc1cncc(-c2cnc(NC(=O)C(C)(C)c3ccnc(NS(C)(=O)=O)n3)c(F)c2)n1
≤ 100 nM | CCOc1cncc(-c2ccc(NC(=O)C3(c4ccnc(NS(=O)(=O)C5CC5)n4)CC3)cc2)n1
> 1000 nM | CC(C)Oc1cncc(-c2ccc(NC(=O)C(C)(C)c3ccnc(NS(C)(=O)=O)n3)c(F)c2)c1
≤ 100 nM | CCC(C(=O)Nc1ccc(-c2cncc(C(F)(F)F)n2)cn1)c1ccnc(NS(=O)(=O)C2CC2)n1 (centres undefined)
> 100 nM | CCC(C(=O)Nc1ccc(-c2cncc(OCC(F)(F)F)c2)cc1F)c1ccnc(NS(=O)(=O)C2CC2)n1 (centres undefined)
> 1000 nM | CCC(C(=O)Nc1ccc(-c2cccnc2)cn1)c1ccnc(NS(=O)(=O)C2CC2)n1 (centres undefined)
> 1000 nM | CCOc1cncc(-c2ccc(NC(=O)C(C)(C)c3nc(NS(=O)(=O)C4CC4)ncc3C)cc2)n1
> 100 nM | Cc1cc(-c2cncc(C(F)(F)F)n2)ccc1NC(=O)C(C)(C)c1ccnc(NS(C)(=O)=O)n1
≤ 100 nM | CCOc1cncc(-c2ccc(NC(=O)C(C)(C)c3ccnc(NS(C)(=O)=O)n3)cc2)n1
> 100 nM | CCC(C(=O)Nc1ccc(-c2cncc(C(F)(F)F)c2)cn1)c1ccnc(NS(=O)(=O)C2CC2)n1 (centres undefined)
≤ 100 nM | CCC(C(=O)Nc1ccc(-c2cncc(OC(C)C)n2)cn1)c1ccnc(NS(=O)(=O)C2CC2)n1 (centres undefined)
> 1000 nM | CCC(C(=O)Nc1ccc(-c2cccnc2)cc1F)c1ccnc(NS(=O)(=O)C2CC2)n1 (centres undefined)
> 100 nM | CC(C)(C(=O)Nc1ccc(-c2cncc(C(F)(F)F)n2)cc1)c1ccnc(NS(C)(=O)=O)n1
> 1000 nM | CCOc1cncc(-c2ccc(NC(=O)C(C)(C)c3ccnc(NS(=O)(=O)C(C)(C)C)n3)cc2)n1
> 100 nM | CC(C)(C(=O)Nc1ccc(-c2cncc(OC3CC3)n2)cc1)c1ccnc(NS(=O)(=O)C2CC2)n1
> 100 nM | CCOc1cncc(-c2ccc(NC(=O)C(C)(C)c3ccnc(NS(C)(=O)=O)n3)nc2)n1
> 100 nM | CCC(C(=O)Nc1ccc(-c2cncc(OCC(F)(F)F)c2)cn1)c1ccnc(NS(=O)(=O)C2CC2)n1 (centres undefined)
> 100 nM | CCC(C(=O)Nc1ccc(-c2cncc(OC(C)C)c2)cc1F)c1ccnc(NS(=O)(=O)C2CC2)n1 (centres undefined)
